Series [1] deals with T1, enzymatically active free PSA (Homo sapiens, UniProt P07288).
T1 construct: required for 50% cleavage of the noted oligopeptides with enzymatically active free PSA
The experiment in a line: Recognition (cleavage) of oligopeptide-doxorubicin conjugates by free PSA, HPLC. The format is biochemical. The conditions noted are these: DOX conjugate; for Time to 50% Substrate Cleavage by York PSA: PSA digestion buffer pH7.4, 140 mM NaCl, molar ratio to PSA 100 to 1. The procedure: If no salt is indicated for the conjugate, the free conjugate was tested.

The test system of series [2] is LNCap prostate tumor cells. Nature of the series: In vitro cytotoxicity, Alamar Blue assay, LNCaP. The conditions noted are these: 72 HRS, read-out: LNCaP Cell Kill in 72 HRS, {48 HRS} EC 50. The format is cell-based. As for the experimental part:
(§1) The cytotoxicities of the cleaveable oligopeptide-doxorubicin conjugates, prepared as described in Examples 3-6, against a line of cells which is known to be killed by unmodified doxorubicin was assessed with an Alamar Blue assay. Specifically, cell cultures of LNCap prostate tumor cells or DuPRO cells in 96 well plates was diluted with medium containing various concentrations of a given conjugate (final plate well volume of 200 μl ). The cells were incubated for 3 days at 37° C., 20 μl of Alamar Blue is added to the assay well. The cells were further incubated and the assay plates were read on a EL-310 ELISA reader at the dual wavelengths of 570 and 600 nm at 4 and 7 hours after addition of Alamar Blue. Relative percentage viability at the various concentration of conjugate tested was then calculated versus control (no conjugate) cultures. If no salt is indicated, the free conjugate was tested.
A general note: Alamar Blue is a resazurin reagent that responds to reducing activity.

Another series concerns DuPRO cells. Nature of the series: In vitro cytotoxicity, Alamar Blue assay, DuPRO. In kind it is cell-based. The conditions noted are these: value in parentheses beside the LNCaP value, read-out: DuPRO cell kill EC 50. As for the experimental part:
as §1

Series [3] has as its target T1, enzymatically active free PSA. The format is biochemical. The conditions noted are these: for Time to 50% Substrate Cleavage by York PSA (Min), values marked *: asterisk not explained in Table 2. The procedure: All other oligopeptides were tested as neutral compounds.
Setting [4] is: oligopeptide, PSA digestion buffer pH8.0, molar ratio to PSA 100 to 1.

Where two headings read alike, the source gives them in different places. Marks after values point to notes of the source that are not given here. Non-standard residues stand in square brackets, D forms with d. Residues, ends and D or L forms follow the SMILES beside them. Primed or numbered codes have the meaning given here. *: point of attachment. Doxorubicin(3'-N) = COc1cccc2c1C(=O)c1c(O)c3c(c(O)c1C2=O)C[C@@](O)(C(=O)CO)C[C@@H]3O[C@H]1C[C@H](N*)[C@H](O)[C@H](C)O1; X2 = COCCOCCOCCOCCOCCOCCOCCOCCOCCOCCOCCOCCOCCOCCOCCOCCOCC(=O)*; Decanoyl(3,6,9-trioxa) = COCCOCCOCC(=O)*; Glyceroyl(2R) = O=C([C@H](O)CO)*; X4 = COCCOCCOCCOCCOCCOCCOCC(=O)*; hArg = N=C(N)NCCCC[C@H](N)C(=O)O; 3Pal = N[C@@H](Cc1cccnc1)C(=O)O; Chg = N[C@H](C(=O)O)C1CCCCC1; Glycolyl = O=C(CO)*

The text below walks through data of patent US6391305B1, “Conjugates useful in the treatment of prostate cancer” (priority 1999, dated 2002).

T1 sequence (P07288 25-261): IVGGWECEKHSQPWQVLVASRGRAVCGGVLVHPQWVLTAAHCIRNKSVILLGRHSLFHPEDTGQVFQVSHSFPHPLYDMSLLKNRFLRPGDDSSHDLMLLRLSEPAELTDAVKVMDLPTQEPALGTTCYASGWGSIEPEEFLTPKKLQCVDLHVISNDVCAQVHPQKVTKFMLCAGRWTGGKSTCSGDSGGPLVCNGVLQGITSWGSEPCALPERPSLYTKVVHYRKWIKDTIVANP

As to `COc1cccc2c1C(=O)c1c(O)c3c(c(O)c1C2=O)C[C@@](O)(C(=O)CO)C[C@@H]3O[C@H]1C[C@H](NC(=O)[C@H](CC(C)C)NC(=O)[C@H](CO)NC(=O)[C@H](CCC(N)=O)NC(=O)[C@H](Cc2ccc(O)cc2)NC(=O)[C@H](CO)NC(=O)[C@H](CO)NC(=O)[C@H](CCCCNC(=N)N)NC(=O)CO)[C@H](O)[C@H](C)O1` [2-hydroxyacetyl-HomoRSSYQ-SL-DOX (3′), 2-hydroxyacetyl-hArgSerSerTyrGln-SerLeu-DOX (3′)] (Glycolyl-[hArg]SSYQSL-{Doxorubicin(3'-N)}), the “Time to 50% Substrate Cleavage by York PSA” value in series [1] was 16 min. Moreover, the EC50 in series [2] was found to be 13.6 µM.
Take `COc1cccc2c1C(=O)c1c(O)c3c(c(O)c1C2=O)C[C@@](O)(C(=O)CO)C[C@@H]3O[C@H]1C[C@H](NC(=O)[C@H](CC(C)C)NC(=O)[C@H](CO)NC(=O)[C@H](CO)NC(=O)[C@H](CO)NC(=O)[C@H](CCC(N)=O)NC(=O)[C@H](Cc2ccc(O)cc2)NC(=O)[C@H](CO)NC(=O)CO)[C@H](O)[C@H](C)O1` [2-hydroxyacetyl-SYQ-SSSL-DOX (3′), 2-hydroxyacetyl-SerTyrGln-SerSerSerLeu-DOX (3′)] (Glycolyl-SYQSSSL-{Doxorubicin(3'-N)}): the EC50 in series [2] was found to be 18.8 µM.
As to “PEG(2)-SerSerSerChgGln-Ser(dLeu)-DOX (3′) ({Decanoyl(3,6,9-trioxa)}-SSS[Chg]QS[dL]-{Doxorubicin(3'-N)}; also: DOX attached at 3′) [PEG(2)-SSSChgQ-S(dL)-DOX (3′)]”, the “Substrate cleavage by York PSA at 3 HOUR” value in series [1] (3 hours) turned out to be 46%.
As to `COc1cccc2c1C(=O)c1c(O)c3c(c(O)c1C2=O)C[C@@](O)(C(=O)CO)C[C@@H]3O[C@H]1C[C@H](NC(=O)[C@H](CC(C)C)NC(=O)[C@H](CO)NC(=O)[C@H](CCC(N)=O)NC(=O)[C@@H](NC(=O)[C@H](CO)NC(=O)[C@H](C)NC(=O)[C@H](CCCCNC(=N)N)NC(=O)CO)C2CCCCC2)[C@H](O)[C@H](C)O1` [2-hydroxyacetyl-HomoRASChgQ-SL-DOX (3′), 2-hydroxyacetyl-hArgAlaSerChgGln-SerLeu-DOX (3′)] (Glycolyl-[hArg]AS[Chg]QSL-{Doxorubicin(3'-N)}), the EC50 in series [2] is 7.9 µM.
Take `COCCOCCOCCOCCOCCOCCOCCOCCOCCOCCOCCOCCOCCOCCOCCOCCOCC(=O)N[C@@H](CO)C(=O)N[C@@H](CCCCNC(=N)N)C(=O)N[C@@H](Cc1ccc(O)cc1)C(=O)N[C@@H](CCC(N)=O)C(=O)N[C@@H](CO)C(=O)N[C@@H](CC(C)C)C(=O)N[C@H]1C[C@H](O[C@H]2C[C@](O)(C(=O)CO)Cc3c(O)c4c(c(O)c32)C(=O)c2c(OC)cccc2C4=O)O[C@@H](C)[C@H]1O` [PEG(16)-SHomoRYQ-SL-DOX (3′), PEG(16)-SerhArgTyrGln-SerLeu-DOX (3′)] (X2-S[hArg]YQSL-{Doxorubicin(3'-N)}): the “Time to 50% Substrate Cleavage by York PSA” value in series [1] is 65 min. In addition, the EC50 in series [2] was 45 µM.
`COCCOCCOCC(=O)N[C@@H](CCCCNC(=N)N)C(=O)N[C@@H](Cc1ccc(O)cc1)C(=O)N[C@@H](CCC(N)=O)C(=O)N[C@@H](CO)C(=O)N[C@@H](CO)C(=O)N[C@@H](CO)C(=O)N[C@@H](CC(C)C)C(=O)N[C@H]1C[C@H](O[C@H]2C[C@](O)(C(=O)CO)Cc3c(O)c4c(c(O)c32)C(=O)c2c(OC)cccc2C4=O)O[C@@H](C)[C@H]1O` [PEG(2)-HomoRYQ-SSSL-DOX (3′), PEG(2)-hArgTyrGln-SerSerSerLeu-DOX (3′)] ({Decanoyl(3,6,9-trioxa)}-[hArg]YQSSSL-{Doxorubicin(3'-N)}): in series [1] (4 hours), the “Substrate cleavage by York PSA at 4 HOUR” value worked out at 40%. Besides, the EC50 in series [2] stood at 14 µM.
Consider `COCCOCCOCCOCCOCCOCCOCC(=O)N[C@@H](C)C(=O)N[C@@H](CO)C(=O)N[C@H](C(=O)N[C@@H](CCC(N)=O)C(=O)N[C@@H](CO)C(=O)N[C@@H](CC(C)C)C(=O)N[C@H]1C[C@H](O[C@H]2C[C@](O)(C(=O)CO)Cc3c(O)c4c(c(O)c32)C(=O)c2c(OC)cccc2C4=O)O[C@@H](C)[C@H]1O)C1CCCCC1` [PEG(6)-ASChgQ-SL-DOX (3′), PEG(6)-AlaSerChgGln-SerLeu-DOX (3′)] (X4-AS[Chg]QSL-{Doxorubicin(3'-N)}), for which the “Time to 50% Substrate Cleavage by York PSA” value in series [1] was found to be 160 min. Besides, the EC50 in series [2] worked out at 12 µM.
On to `COc1cccc2c1C(=O)c1c(O)c3c(c(O)c1C2=O)C[C@@](O)(C(=O)CO)C[C@@H]3O[C@H]1C[C@H](NC(=O)[C@H](CC(C)C)NC(=O)[C@H](CO)NC(=O)[C@H](CCC(N)=O)NC(=O)[C@@H](NC(=O)[C@H](CO)NC(=O)[C@H](CO)NC(=O)[C@H](Cc2cccnc2)NC(=O)[C@H](O)CO)C2CCCCC2)[C@H](O)[C@H](C)O1` [(d)(2,3-dihydroxypropionyl)-3PAL-SerSerChgGln-SerLeu-DOX (3′)] ({Glyceroyl(2R)}-[3Pal]SS[Chg]QSL-{Doxorubicin(3'-N)}), for which, in series [1], the “Time to 50% Substrate Cleavage by York PSA” value came out at 12 min. In series [2], the EC50 was found to be 5.5 µM.
With `COCCOCCOCC(=O)N[C@@H](CCCCN)C(=O)N[C@@H](Cc1ccc(O)cc1)C(=O)N[C@@H](CCC(N)=O)C(=O)N[C@@H](CO)C(=O)N[C@@H](CO)C(=O)N[C@@H](CO)C(=O)N[C@@H](CC(C)C)C(=O)N[C@H]1C[C@H](O[C@H]2C[C@](O)(C(=O)CO)Cc3c(O)c4c(c(O)c32)C(=O)c2c(OC)cccc2C4=O)O[C@@H](C)[C@H]1O` [PEG(2)-KYQ-SSSL-DOX (3′), PEG(2)-LysTyrGln-SerSerSerLeu-DOX (3′)] ({Decanoyl(3,6,9-trioxa)}-KYQSSSL-{Doxorubicin(3'-N)}), in series [2], the EC50 came out at 12.8 µM.
For the compound `COc1cccc2c1C(=O)c1c(O)c3c(c(O)c1C2=O)C[C@@](O)(C(=O)CO)C[C@@H]3O[C@H]1C[C@H](NC(=O)[C@H](CC(C)C)NC(=O)[C@H](CO)NC(=O)[C@H](CCC(N)=O)NC(=O)[C@@H](NC(=O)[C@H](CCCCNC(=N)N)NC(=O)[C@H](CO)NC(=O)CO)C2CCCCC2)[C@H](O)[C@H](C)O1` [2-hydroxyacetyl-SHomoRChgQ-SL-DOX (3′), 2-hydroxyacetyl-SerhArgChgGln-SerLeu-DOX (3′)] (Glycolyl-S[hArg][Chg]QSL-{Doxorubicin(3'-N)}), the EC50 in series [2] is 5.1 µM; in the series with DuPRO cells, more than 100 µM.
With `COCCOCCOCC(=O)N[C@@H](CO)C(=O)N[C@@H](CCCCNC(=N)N)C(=O)N[C@@H](Cc1ccc(O)cc1)C(=O)N[C@@H](CCC(N)=O)C(=O)N[C@@H](CO)C(=O)N[C@@H](CC(C)C)C(=O)N[C@H]1C[C@H](O[C@H]2C[C@](O)(C(=O)CO)Cc3c(O)c4c(c(O)c32)C(=O)c2c(OC)cccc2C4=O)O[C@@H](C)[C@H]1O` [PEG(2)-SHomoRYQ-SL-DOX (3′), PEG(2)-SerhArgTyrGln-SerLeu-DOX (3′)] ({Decanoyl(3,6,9-trioxa)}-S[hArg]YQSL-{Doxorubicin(3'-N)}), the “Time to 50% Substrate Cleavage by York PSA” value in series [1] was found to be 60 min. In addition, the EC50 in series [2] (listed as PEG(2)-ShRYQ-SL-DOX(3′)) was 34 µM.
For the compound “PEG(2)-S-hRChgQ-SL-acid: blocked oligopeptide with PSA cleavage site, Example 1 ({Decanoyl(3,6,9-trioxa)}-S[hArg][Chg]QSL-OH)”, in series [3] (setting [4]), the “Time to 50% Substrate Cleavage by York PSA” value was determined as 30 min.
In the case of “PEG(2)-ShRYQ-SL-acid: blocked oligopeptide with PSA cleavage site, Example 1 ({Decanoyl(3,6,9-trioxa)}-S[hArg]YQSL-OH)”, the “Time to 50% Substrate Cleavage by York PSA (Min), values marked *” value in series [3] (oligopeptide) is reported as 35* Min.
With `COCCOCCOCC(=O)N[C@@H](C)C(=O)N[C@@H](CO)C(=O)N[C@H](C(=O)N[C@@H](CCC(N)=O)C(=O)N[C@@H](CO)C(=O)N[C@@H](CC(C)C)C(=O)N[C@H]1C[C@H](O[C@H]2C[C@](O)(C(=O)CO)Cc3c(O)c4c(c(O)c32)C(=O)c2c(OC)cccc2C4=O)O[C@@H](C)[C@H]1O)C1CCCCC1` [PEG(2)-ASChgQ-SL-DOX (3′), PEG(2)-AlaSerChgGln-SerLeu-DOX (3′)] ({Decanoyl(3,6,9-trioxa)}-AS[Chg]QSL-{Doxorubicin(3'-N)}), the “Time to 50% Substrate Cleavage by York PSA” value in series [1] came out at 45 min. Also, the EC50 in series [2] turned out to be 5.6 µM.
Take “PEG(2)SSSChgQ-SL-acid: blocked oligopeptide with PSA cleavage site, Example 1 ({Decanoyl(3,6,9-trioxa)}-SSS[Chg]QSL-OH)”: the “Time to 50% Substrate Cleavage by York PSA” value in series [3] (setting [4]) turned out to be 150 min.
On to “AchRSSChgQ-SL-acid: blocked oligopeptide with PSA cleavage site, Example 1 (Ac-[hArg]SS[Chg]QSL-OH)”, for which the “Time to 50% Substrate Cleavage by York PSA” value in series [3] (setting [4]) came to 120 min. In series [3] (oligopeptide), the “Time to 50% Substrate Cleavage by York PSA (Min), values marked *” value was 45 min.
For “PEG(18)ShRYQ-SL-acid: blocked oligopeptide with PSA cleavage site, Example 1 ({PEG(18)}-S[hArg]YQSL-OH)”, in series [3] (setting [4]), the “Time to 50% Substrate Cleavage by York PSA” value amounted to 40 min.
As to `CC(C)C[C@H](NC(=O)[C@H](CO)NC(=O)[C@H](CCC(N)=O)NC(=O)[C@H](Cc1ccc(O)cc1)NC(=O)[C@H](CO)NC(=O)[C@H](CO)NC(=O)[C@H](CCCCNC(=N)N)NC(=O)CO)C(=O)O` [2-hydroxyacetyl-hRSSYQ-SL-acid] (Glycolyl-[hArg]SSYQSL-OH), the “Time to 50% Substrate Cleavage by York PSA” value in series [3] (psa digestion buffer, pH 8) was 35 min.
